Values quoted from earlier work as cited in patent US7354941B2, “Nicotinamide benzofused-heterocyclyl derivatives useful as selective inhibitors of PDE4 isozymes” (Pfizer Products Inc., priority 2000, dated 2008).
Read-outs that look alike come from different tables or passages of the source.

Assays:
guinea-pig lung PDE4 = settings: cited from earlier work
[1] = test system: isolated pulmonary artery rings; settings: rings from normal rats and rats with hypoxia-induced pulmonary hypertension; cited from earlier work
[2] = test system: T-cell mediated hepatic failure; settings: cited from earlier work
[3] = test system: experimental allergic encephalomyelitis; settings: marmoset; cited from earlier work
[4] = test system: lipopolysaccharide-induced bowel erythrocyte extravasation; settings: cited from earlier work; for lipopolysaccharide-induced bowel erythrocyte extravasation: pretreatment i.p. 3×, rats; for lipopolysaccharide induced erythrocyte extravasation in rats and intestinal hypoperfusion in dogs: rat, in vivo
colitis = settings: rat; cited from earlier work
[5] = test system: collagen II induced arthritis; settings: cited from earlier work
[6] = test system: croton oil-induced ear inflammation; settings: mouse; cited from earlier work
[7] = test system: chronic relapsing experimental allergic encephalomyelitis; settings: SJL mice; cited from earlier work
[8] = test system: human peripheral blood mononuclear cells (HPBM); settings: normal patients and subjects with atopic dermatitis; cited from earlier work
PBMC = settings: cited from earlier work
bronchitis = settings: in vivo; cited from earlier work
TNFproduction = settings: read-out: IC50, TNF production; cited from earlier work
PDE4 = settings: cited from earlier work
[9] = rat; cited from earlier work
PDE4 in U937 cells = settings: cited from earlier work
[10] = test system: antigen-induced eosinophilia; settings: rat; cited from earlier work
[11] = rat; cited from earlier work; remark: listed apart in the source
[12] = 54 subjects, doses up to 400 mg; cited from earlier work
[13] = test system: early phase bronchoconstriction; settings: in vivo; cited from earlier work
bone loss = settings: serial oral administrations; cited from earlier work
[14] = test system: lipopolysaccharide-induced mesenteric blood flow fall; settings: dog, in vivo; cited from earlier work
bone marrow culture = settings: cited from earlier work
[15] = test system: LPS-stimulated ex vivo TNF release and PHA induced lymphocyte proliferation; settings: oral dose of 300 mg; cited from earlier work
[16] = test system: antigen-induced bronchoconstriction; settings: guinea-pig; cited from earlier work
catalytic site (Sc) = settings: compared with SB-207,499; cited from earlier work
[17] = test system: high-affinity rolipram binding site (Sr); settings: cited from earlier work
[18] = test system: patients with bronchial asthma; settings: cited from earlier work
canine tracheal PDE4 = settings: at 100 nM; cited from earlier work
[19] = test system: PDE4 derived from tumor cells; settings: cited from earlier work
tumor cells = settings: cited from earlier work
[20] = standard in vitro guinea-pig models of asthma; cited from earlier work

CCOc1cc2cc(CO)c(CO)c(-c3ccnc(-n4nc(-c5cccnc5)c5ccccc5c4=O)c3)c2cc1OCC [Example T-2585]
IC50 (guinea-pig lung PDE4): 0.13 nM

COc1ccc(C2CNC(=O)C2)cc1OC1CCCC1 (centres unmarked) [rolipram]
relaxant activities of isoproterenol and forskolin [1]: potentiates the relaxant activities of isoproterenol and forskolin | plasma TNF-α and INF-γ concentrations ([2]; 0.1 to 10 mg/kg i.p. 30 minutes before challenge): significantly reduce plasma TNF-α and INF-γ concentrations | IL-10 levels ([2]; 0.1 to 10 mg/kg i.p.): significantly elevates IL-10 levels | plasma activities of ALT, AST, and SDH ([2]; 0.1 to 10 mg/kg i.p.): dose-dependently inhibited | concanavalin A-induced IL4 release ([2]; mouse, in vivo): suppress concanavalin A-induced IL4 release | clinical signs and MRI abnormalities [3]: suppress the appearance of clinical signs and abolish abnormalities in MRI imaging | lipopolysaccharide-induced bowel erythrocyte extravasation [4]: reduces lipopolysaccharide-induced bowel erythrocyte extravasation | lipopolysaccharide induced erythrocyte extravasation in rats and intestinal hypoperfusion in dogs [4]: attenuated | effects in dextran sulfate induced colitis model (colitis): beneficial effects comparable to prednisolone | appearance of arthritic symptoms ([5]; 2 mg/kg twice daily for five days before the onset of arthritis): significantly delayed the appearance of arthritic symptoms | development of the disease, arthritis severity ([5]; 3 mg/kg twice daily when arthritis was apparent): progression of severity was halted | TNF-α and IFN mRNA expression in regional lymph nodes ([5]; rat, in vivo): strong down-regulation of TNF-α and IFN7 mRNA expression | topical doses inhibiting croton oil-induced ear inflammation (as low as) [6]: 0.03 mg per ear | clinical signs and pathological changes [7]: ameliorates clinical signs and pathological changes | inhibition of the proliferation of HPBM [8]: concentration-related inhibition | IC50 (PBMC; PHA stimulated atopic dermatitis PBMC proliferation): 280 nM | IC50 (PBMC; PHA stimulated normal PBMC proliferation): 2600 nM

Cc1c[n+]([O-])ccc1CC(c1ccc(C(O)(C(F)(F)F)C(F)(F)F)cc1)c1ccc(OC(F)F)c(OC(F)F)c1 [L-826,141]
activity in a rat model of bronchitis (bronchitis): activity

COc1ccc(C(CC(N)=O)N2C(=O)c3ccccc3C2=O)cc1OC1CCCC1 (centres unmarked) [(0.0.32)]
IC50 (TNFproduction): 130 nM | IC50 (PDE4): 0.042 nM

Cc1cc2c3c(c1)C(c1ccccc1)=N[C@@H](NC(=O)c1ccncc1)C(=O)N3CC2 [CI-1018]
oral bioavailability [9]: 57% | IC50 (PDE4 in U937 cells): 1100 nM | inhibition of antigen-induced eosinophilia [10]: active | ED50, oral potency [11]: 5 mg/kg | adverse events [12]: no adverse events were reported

CCOc1cc2cc(CO)c(CO)c(-c3ccn(CCOC)c(=O)c3)c2cc1OCC [Example T-440]
inhibition of early and late phase bronchoconstriction, BAL eosinophilia, ozone-induced AHR and airway epithelial injury [13]: activity

CCCCn1c(=O)c2c(ncn2CC(C)=O)n(CCCC)c1=O [denbufylline]
lipopolysaccharide-induced bowel erythrocyte extravasation [4]: reduces lipopolysaccharide-induced bowel erythrocyte extravasation | lipopolysaccharide induced erythrocyte extravasation in rats and intestinal hypoperfusion in dogs [4]: attenuated | bone mineral density of femurs (bone loss): inhibit the decrease in the bone mineral density of femurs | potency relative to pentoxifylline in inhibiting mesenteric blood flow fall [14]: 100 fold | inhibition of the proliferation of HPBM [8]: concentration-related inhibition | mineralized nodules and osteoclast-like cells (bone marrow culture): increase in the number of mineralized nodules and a decrease in the number of osteoclast-like cells

CCNc1ncn(Cc2ccc(OC)c(OC3CCCC3)c2)c2nc(C(C)C)nc1-2 [Example V-11294A]
TNF levels and lymphocyte proliferation [15]: effective in reducing TNF levels and lymphocyte proliferation | inhibition of antigen-induced bronchoconstriction [16]: active

COc1ccc([C@H](Cc2ccncc2)c2ccccc2)cc1OC1CCCC1 [CDP840]
potency at the Sc (catalytic site (Sc)): significantly higher potency at the Sc than does SB-207,499 | affinity at the Sr [17]: comparatively low affinity at the Sr | late reactions to inhaled allergen ([18]; 9.5 days oral, 15 and 30 mg): suppression of late reactions to inhaled allergen | adverse events of nausea or headache ([18]; human, in vivo): without any adverse events of nausea or headache | late-phase response in the treatment of asthma ([18]; human, in vivo): significant inhibition of late-phase response

COc1ccc(C(=O)Cc2c(Cl)c[n+]([O-])cc2Cl)c2c1OCCCCO2 [(0.0.49)]
inhibition of canine tracheal PDE4 (canine tracheal PDE4): almost complete inhibition

Clc1nc2c(N3CCCC3)nc(N3CCNCC3)nc2nc1NCc1ccccc1 [(0.0.55)]
IC50 [19]: 16 nM | growth of tumor cells (tumor cells): inhibit the growth of tumor cells at micromolar concentrations

O=C(Nc1c(Cl)cncc1Cl)c1ccc(OC(F)F)c(OCC2CC2)c1 [Roflumilast]
IC50 [20]: 3.5 nM
